According to paper PMC6691786, “In vitro anticancer potentiality and molecular modelling study of novel amino acid derivatives based on N^1,N^3-bis-(1-hydrazinyl-1-oxopropan-2-yl) isophthalamide” (Journal of Enzyme Inhibition and Medicinal Chemistry, 2019):
“Also recorded” adds a separate entry of the source. Blank lines part the entries; values can stand above or below the compound they belong to.

Assays:
HCT-116 cell line = assay: MTT cytotoxicity assay, colon carcinoma; format: cell-based; conditions: Homo sapiens; for inhibition at 100 µM: HCT-116, at 100 µM; for IC50: HCT-116, MTT, 48-h incubation, read-out: IC50 (mean ± SD)
Description: (§1) Human colon carcinoma (HCT-116 cell line), human lung carcinoma (A-549), human breast carcinoma (MCF-7 cell line) and human skin normal cell line (BJ-1) were obtained from Karolinska Center, Department of Oncology and Pathology, Karolinska Institute and Hospital, Stockholm, Sweden. IC50 values were performed using SPSS computer program (SPSS for windows, statistical analysis software package/version 9/1989 SPSS Inc., Chicago, IL).
(§2) The procedure was done in laminar air flow cabinet bio safety class II level. Culturing and sub culturing were carried out according to Thabrew et al.[32]. Doxorubicin was used as a positive control. DMSO used as negative control. Cell Viability Assay was done according to Selim et al.[33] as described by Mosmann et al.[34]. The cells were seeded at concentration of 10 × 10^3 cells per well in case of MCF-7, 20 × 10^3 cells/well in case of HCT-116 cell lines using 96-well plates at 37 °C. After 48-h incubation, the medium was aspirated and 40 μl MTT salt (2.5 mg/ml) were added and further incubated for 4 h. About 200 μl 10% sodium dodecyl sulphate (SDS) was added. The absorbance was measured at 595 nm.

A-549 cell line = assay: MTT cytotoxicity assay, lung carcinoma; format: cell-based; conditions: Homo sapiens, A549; for inhibition at 100 µM: A-549, at 100 µM
Description: as §1, §2

MCF-7 cell line = assay: MTT cytotoxicity assay, breast carcinoma; format: cell-based; conditions: Homo sapiens, MCF7; for inhibition at 100 µM: MCF-7, at 100 µM
Description: as §1, §2

[1] = tested on: HCT-116, A-549 and MCF-7 cell lines; assay: Preliminary cytotoxicity screen on the three tumour cell lines (MTT); format: cell-based, human; conditions: for cytotoxic activity (in words, SAR): HCT-116, A-549, MCF-7, compared with related derivatives; for inhibition at 100 µM: Homo sapiens, range over HCT-116, A-549, MCF-7, read-out: % of inhibition towards the three tested cancer cell lines
Description: as §1, §2

[2] = tested on: BJ-1 normal skin fibroblasts cell line; assay: MTT cytotoxicity on normal skin cell line; format: cell-based, human; conditions: BJ-1 normal skin cells, at 100 µM
Description: as §1, §2

EGFR = EGFR (Homo sapiens, UniProt P00533); assay: In vitro kinase inhibition ELISA assay; format: biochemical; conditions: read-out: IC50 (mean ± SD)
Chain of EGFR (P00533 25-1210): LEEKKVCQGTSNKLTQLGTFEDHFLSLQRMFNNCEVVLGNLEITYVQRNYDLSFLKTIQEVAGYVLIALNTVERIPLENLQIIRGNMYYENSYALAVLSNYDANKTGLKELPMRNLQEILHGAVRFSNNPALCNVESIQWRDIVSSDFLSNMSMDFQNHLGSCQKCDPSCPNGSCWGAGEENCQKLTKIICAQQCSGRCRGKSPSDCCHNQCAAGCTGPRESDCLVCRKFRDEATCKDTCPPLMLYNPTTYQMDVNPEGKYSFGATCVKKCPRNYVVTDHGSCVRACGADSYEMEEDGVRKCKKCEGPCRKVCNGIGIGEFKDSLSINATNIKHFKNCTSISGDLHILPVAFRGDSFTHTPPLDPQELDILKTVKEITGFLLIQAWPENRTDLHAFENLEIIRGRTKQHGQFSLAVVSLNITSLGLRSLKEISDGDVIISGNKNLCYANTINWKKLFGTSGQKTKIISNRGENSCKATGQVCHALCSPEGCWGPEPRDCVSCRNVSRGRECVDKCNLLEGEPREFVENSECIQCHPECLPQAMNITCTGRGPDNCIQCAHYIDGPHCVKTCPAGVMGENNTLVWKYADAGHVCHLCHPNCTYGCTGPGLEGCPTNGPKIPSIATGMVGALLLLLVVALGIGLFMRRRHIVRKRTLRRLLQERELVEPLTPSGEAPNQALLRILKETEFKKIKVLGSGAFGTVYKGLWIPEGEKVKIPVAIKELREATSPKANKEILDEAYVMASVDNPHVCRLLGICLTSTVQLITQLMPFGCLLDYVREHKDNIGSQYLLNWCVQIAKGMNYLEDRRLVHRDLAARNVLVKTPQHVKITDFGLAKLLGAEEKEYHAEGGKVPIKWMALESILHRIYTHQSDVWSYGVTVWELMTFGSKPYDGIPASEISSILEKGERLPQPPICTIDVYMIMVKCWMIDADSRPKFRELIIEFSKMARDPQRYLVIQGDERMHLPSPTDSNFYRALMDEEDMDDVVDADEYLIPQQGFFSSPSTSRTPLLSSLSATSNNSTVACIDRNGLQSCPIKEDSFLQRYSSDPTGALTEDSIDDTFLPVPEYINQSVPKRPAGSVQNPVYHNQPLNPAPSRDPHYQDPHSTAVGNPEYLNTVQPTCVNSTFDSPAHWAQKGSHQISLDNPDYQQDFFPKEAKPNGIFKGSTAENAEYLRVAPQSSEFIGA
Description: The in vitro enzyme inhibition assessment for compound 5 was performed at confirmatory diagnostic unit, Vacsera, Egypt.

VEGFR-2 = VEGFR-2 (Homo sapiens, UniProt P35968); assay: In vitro kinase inhibition ELISA assay; format: biochemical; conditions: VEGFR-2 kinase, read-out: IC50 (mean ± SD)
Chain of VEGFR-2 (P35968 20-1356): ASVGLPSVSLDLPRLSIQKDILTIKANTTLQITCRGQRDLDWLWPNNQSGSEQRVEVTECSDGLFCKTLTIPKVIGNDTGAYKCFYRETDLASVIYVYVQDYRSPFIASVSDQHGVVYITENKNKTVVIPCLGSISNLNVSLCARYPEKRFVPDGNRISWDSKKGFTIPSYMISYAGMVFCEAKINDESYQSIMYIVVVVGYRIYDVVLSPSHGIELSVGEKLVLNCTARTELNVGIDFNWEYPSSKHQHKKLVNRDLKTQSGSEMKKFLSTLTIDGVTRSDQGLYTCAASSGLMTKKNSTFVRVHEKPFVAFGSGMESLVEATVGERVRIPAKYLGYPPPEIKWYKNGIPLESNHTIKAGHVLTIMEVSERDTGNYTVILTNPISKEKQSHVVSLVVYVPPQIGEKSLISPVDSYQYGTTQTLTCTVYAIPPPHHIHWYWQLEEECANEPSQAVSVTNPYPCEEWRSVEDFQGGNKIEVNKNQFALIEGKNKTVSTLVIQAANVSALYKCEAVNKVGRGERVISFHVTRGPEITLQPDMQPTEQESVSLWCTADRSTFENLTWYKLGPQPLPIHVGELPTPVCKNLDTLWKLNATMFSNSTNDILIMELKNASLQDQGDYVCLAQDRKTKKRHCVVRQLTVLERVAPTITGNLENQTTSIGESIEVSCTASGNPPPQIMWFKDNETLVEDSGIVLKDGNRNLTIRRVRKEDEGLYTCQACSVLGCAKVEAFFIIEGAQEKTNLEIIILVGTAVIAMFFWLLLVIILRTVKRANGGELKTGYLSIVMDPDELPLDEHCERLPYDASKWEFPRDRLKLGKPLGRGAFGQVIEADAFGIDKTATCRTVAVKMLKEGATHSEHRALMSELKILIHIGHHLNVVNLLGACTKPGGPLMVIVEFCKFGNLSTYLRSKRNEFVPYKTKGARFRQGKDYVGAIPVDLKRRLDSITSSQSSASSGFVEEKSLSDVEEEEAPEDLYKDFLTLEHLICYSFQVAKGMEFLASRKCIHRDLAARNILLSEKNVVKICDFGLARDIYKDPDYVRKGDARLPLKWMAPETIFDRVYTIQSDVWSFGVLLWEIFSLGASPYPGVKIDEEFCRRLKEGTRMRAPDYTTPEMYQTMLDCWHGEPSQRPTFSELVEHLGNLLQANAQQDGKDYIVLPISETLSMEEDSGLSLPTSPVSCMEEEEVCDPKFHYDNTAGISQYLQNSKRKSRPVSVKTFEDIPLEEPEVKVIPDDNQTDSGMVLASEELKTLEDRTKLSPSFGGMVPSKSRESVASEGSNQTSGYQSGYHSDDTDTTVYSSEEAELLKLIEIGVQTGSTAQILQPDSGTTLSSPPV

CDK-2 = CDK-2 (Homo sapiens, UniProt P24941); assay: In vitro kinase inhibition ELISA assay; format: biochemical; conditions: CDK-2 kinase, read-out: IC50 (mean ± SD)
c-kit = c-kit (Homo sapiens, UniProt P10721); assay: In vitro kinase inhibition ELISA assay; format: biochemical; conditions: read-out: IC50 (mean ± SD)
Chain of c-kit (P10721 26-976): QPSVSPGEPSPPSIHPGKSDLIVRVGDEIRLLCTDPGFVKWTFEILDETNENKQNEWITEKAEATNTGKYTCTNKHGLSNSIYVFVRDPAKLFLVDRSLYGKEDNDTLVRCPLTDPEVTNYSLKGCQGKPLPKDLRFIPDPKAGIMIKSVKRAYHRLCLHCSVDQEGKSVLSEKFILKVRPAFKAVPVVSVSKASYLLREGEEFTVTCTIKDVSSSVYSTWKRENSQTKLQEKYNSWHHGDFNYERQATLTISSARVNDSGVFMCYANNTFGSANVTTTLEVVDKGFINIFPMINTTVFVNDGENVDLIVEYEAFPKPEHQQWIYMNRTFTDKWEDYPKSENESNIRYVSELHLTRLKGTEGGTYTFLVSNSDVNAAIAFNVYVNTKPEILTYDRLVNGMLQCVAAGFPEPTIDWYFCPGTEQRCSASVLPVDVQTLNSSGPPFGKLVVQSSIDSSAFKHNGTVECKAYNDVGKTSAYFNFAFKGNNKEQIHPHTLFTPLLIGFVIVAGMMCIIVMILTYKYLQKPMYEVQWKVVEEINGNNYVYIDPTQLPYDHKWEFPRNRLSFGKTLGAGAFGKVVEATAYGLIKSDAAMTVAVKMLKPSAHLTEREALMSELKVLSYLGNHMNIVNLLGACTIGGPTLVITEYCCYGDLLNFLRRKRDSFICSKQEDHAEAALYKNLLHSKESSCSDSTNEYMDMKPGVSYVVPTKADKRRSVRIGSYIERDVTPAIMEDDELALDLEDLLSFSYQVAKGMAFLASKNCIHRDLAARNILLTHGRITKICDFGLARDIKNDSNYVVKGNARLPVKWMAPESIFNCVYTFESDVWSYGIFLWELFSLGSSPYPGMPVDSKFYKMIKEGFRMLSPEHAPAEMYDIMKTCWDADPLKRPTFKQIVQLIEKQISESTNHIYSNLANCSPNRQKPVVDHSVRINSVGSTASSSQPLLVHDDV

Bax = Bax protein level ELISA in MCF-7 cells; format: cell-based, human; conditions: compound at IC50 for 24 h
Description: Bax protein levels were evaluated according to Onur et al.. Monoclonal antibody specific to Bax captured on the plate is added. After incubation, Strep avid in conjugated to Horseradish peroxidase (HRP) is added. The reaction is terminated by the addition of acid and optical density of the colour produced measured at 450 nm.

BCL-2 = BCL-2 level ELISA in MCF-7 cells; format: cell-based, human; conditions: compound at IC50 for 24 h, compared to control
Description: BCL-2 in the samples and standards were estimated according to Barbareschi et al.. A biotin-conjugated antibody was added followed by streptavidin-HRP. The reaction is then terminated by addition of acid and absorbance was measured at 450 nm.

p53 = p53 level ELISA in MCF-7 cells; format: cell-based, human; conditions: compound at IC50 for 24 h, compared to control
Description: Human p53 present in the sample or standard binds to antibodies adsorbed to the microwells. A biotin-conjugated is added. After incubation and dispense of unbound biotin-conjugated streptavidin HRP is added. The reaction is terminated by addition of acid and absorbance is measured at 450 nm[37].

CASP-7 = assay: Human caspase-7 (CASP-7) estimation ELISA in MCF-7 cells; format: cell-based
Description: The micro ELISA plate provided in this kit pre-coated with CASP7-specific antibody. A biotinylated CASP7 antibody and Avidin–HRP conjugate was added. Aspire the excess components. The substrate solution was added wells that contain CASP7, biotinylated detection antibody and Avidin–HRP conjugate will appear blue in colour. The colour turns yellow followed the addition of sulphuric acid solution. The optical density (OD) was measured at a wavelength of 450 nm ± 2 nm[38].

tubulin beta (TUBb) = assay: ELISA kit for tubulin beta (TUBb) in MCF-7 cells; format: cell-based, human; conditions: in comparison with colchicine
Description: MCF-7 cells were inoculated at concentration 1.2–1.8 × 10,000 cells/well using DMEM (supplemented with 10% FBS and 1% penicillin–streptomycin). Tested compound added for 18–24 h before the enzyme assay for Tubulin. Avidin conjugated to HRP is added to each microplate well and incubated. […] Sulphuric acid solution added to terminate enzymatic reaction. Colour change is measured spectrophotometrically at a wavelength of 450 nm ± 10 nm[39].

MCF-7 cells = assay: DNA fragmentation by DPA assay; format: cell-based, human
Description: DNA fragmentation of the cells was assayed, as previously described[40]^,[41]. Briefly, the cells were lysed with 20 mM EDTA, 0.5% (v/v) Triton X-100, and […] Tris (pH 8.0) for 15 min on ice. The cells were then centrifuged for 20 min, at 27,000×g, to separate intact chromatin from DNA fragments. The amount of DNA was measured by using a diphenylamine reagent. The optical density is measured at 600 nm.

IC50 (EGFR): 780 ± 1250 nM
IC50 (VEGFR-2): 3170 ± 1000 nM
IC50 (CDK-2): 6240 ± 1210 nM
IC50 (c-kit): 2850 ± 40 nM
melting point: 271 to 273 °C
Compound: CC(NC(=O)c1cccc(C(=O)NC(C)C(=O)N/N=C2/C(=O)Nc3ccccc32)c1)C(=O)N/N=C1\C(=O)Nc2ccccc21 (centres unmarked) [Compound 5, N^1-(1-oxo-1-(-2-(2-oxoindolin-3-ylidene) hydrazinyl)propan-2-yl)-N^3-(1-oxo-1-(-2-(2-oxoindolin-3-ylidene) hydrazinyl)propan-2-yl) isophthalamide]
IC50 (HCT-116 cell line): 14 nM
% inhibition (cytotoxicity on normal cells) [2]: 32.6%
inhibition at 100 µM [1]: 72.5 to 98.3%
Bax/BCL-2 ratio (Bax): significant elevation; also recorded: significantly elevated
Bax expression level (Bax; compared to control): significant up-expression
BCL-2 expression level (BCL-2): down-expression
p53 expression level (p53): significant up-expression
level of active CASP-7 (CASP-7): significant increase
effect on microtubule-polymer mass (tubulin polymerization, TubB) (tubulin beta (TUBb)): moderate effect
% of DNA fragmentation (MCF-7 cells): remarkable % of DNA fragmentation

melting point: 242 to 244 °C
Compound: COc1ccc(C2SCC(=O)N2NC(=O)C(C)NC(=O)c2cccc(C(=O)NC(C)C(=O)NN3C(=O)CSC3c3ccc(OC)cc3)c2)cc1 (centres unmarked)

melting point: 296 to 298 °C
Compound: CC(NC(=O)c1cccc(C(=O)NC(C)C(=O)NN=Cc2ccc(Cl)cc2)c1)C(=O)NN=Cc1ccc(Cl)cc1 (centres unmarked) [Compound 10, N^1,N^3-bis-(1-(-2-(4-chlorobenzylidene) hydrazinyl)-1-oxopropan-2-yl) isophthalamide]
cytotoxic activity (in words, SAR) [1]: variable and noticeable increase in the cytotoxic activity

melting point: 271 to 273 °C
Compound: CC(NC(=O)c1cccc(C(=O)NC(C)C(=O)NN=C2C(=O)Nc3ccc(Cl)cc32)c1)C(=O)NN=C1C(=O)Nc2ccc(Cl)cc21 (centres unmarked) [Compound 6, N^1-(1-(-2-(5-chloro-2-oxoindolin-3-ylidene)hydrazinyl)-1-oxopropan-2-yl)-N^3-(1-(-2-(5-chloro-2-oxoindolin-3-ylidene) hydrazinyl)-1-oxopropan-2-yl)isophthalamide]
inhibition at 100 µM (HCT-116 cell line): 33.1%
inhibition at 100 µM (A-549 cell line): 48.4%
inhibition at 100 µM (MCF-7 cell line): 19.6%

melting point: 273 to 275 °C
Compound: COc1ccc(C=NNC(=O)C(C)NC(=O)c2cccc(C(=O)NC(C)C(=O)NN=Cc3ccc(OC)cc3)c2)cc1 (centres unmarked) [Compound 12, N^1,N^3-bis-(1-(-2-(4-methoxybenzylidene) hydrazinyl)-1-oxopropan-2-yl) isophthalamide]
IC50 (MCF-7 cell line; MCF-7, MTT, 48-h incubation, read-out: IC50 (mean ± SD)): 51 nM
cytotoxic activity (in words, SAR) [1]: variable and noticeable increase in the cytotoxic activity
inhibition at 100 µM [1]: 72.5 to 98.3%

melting point: 277 to 279 °C
Compound: COc1ccc(C=NNC(=O)C(C)NC(=O)c2cccc(C(=O)NC(C)C(=O)NN=Cc3ccc(OC)c(OC)c3)c2)cc1OC (centres unmarked) [Compound 13, N^1,N^3-bis-(1-(-2-(3,4-dimethoxybenzylidene) hydrazinyl)-1-oxopropan-2-yl) isophthalamide]
cytotoxic activity (in words, SAR) [1]: reduction in the activity

melting point: 285 to 287 °C
Compound: CC(NC(=O)c1cccc(C(=O)NC(C)C(=O)NN=Cc2ccc(F)cc2)c1)C(=O)NN=Cc1ccc(F)cc1 (centres unmarked) [Compound 11, N^1,N^3-bis-(1-(-2-(4-fluorobenzylidene) hydrazinyl)-1-oxopropan-2-yl) isophthalamide]
cytotoxic activity (in words, SAR) [1]: variable and noticeable increase in the cytotoxic activity

The next lines start with the compound.

Compound: CC(NC(=O)c1cccc(C(=O)NC(C)C(=O)NN)c1)C(=O)NN (centres unmarked) [Compound 4, N^1,N^3-bis-(1-hydrazinyl-1-oxopropan-2-yl) isophthalamide]
inhibition at 100 µM (HCT-116 cell line): 2.3%
inhibition at 100 µM (A-549 cell line): 0.9%
inhibition at 100 µM (MCF-7 cell line): 1.8%
melting point: 232 to 234 °C

Compound: COc1cccc2c1C(=O)c1c(O)c3c(c(O)c1C2=O)C[C@@](O)(C(=O)CO)C[C@@H]3O[C@H]1C[C@H](N)[C@H](O)[C@H](C)O1 [Doxorubicin, reference compound]
IC50 (HCT-116 cell line): 65 nM

Compound: CC(NC(=O)c1cccc(C(=O)NC(C)C(=O)NN=C[C@H](O)[C@@H](O)[C@H](O)CO)c1)C(=O)NN=C[C@H](O)[C@@H](O)[C@H](O)CO (stereo partly drawn) [Compound 8, N^1,N^3-bis (1-oxo-1-(-2-((2S, 3 R, 4 R)-2,3,4,5-tetrahydroxypentylidene) hydrazinyl)propan-2-yl) isophthalamide]
cytotoxic activity (in words, SAR) [1]: dramatic drop in the anticancer effect

Compound: CC(NC(=O)c1cccc(C(=O)NC(C)C(=O)NN2C(=O)CSC2c2ccc(Cl)cc2)c1)C(=O)NN1C(=O)CSC1c1ccc(Cl)cc1 (centres unmarked) [Compound 14, N^1,N^3-bis-(1-(2-(4-chlorophenyl)-4-oxothiazolidin-3-ylamino)-1-oxopropan-2-yl) isophthalamide]
IC50 (A-549 cell line; A-549, MTT, read-out: IC50 (mean ± SD)): 41 nM
inhibition at 100 µM [1]: 72.5 to 98.3%
melting point: 218 to 220 °C

Compound: CC(NC(=O)c1cccc(C(=O)NC(C)C(=O)NN=C[C@@H](O)[C@H](O)[C@H](O)CO)c1)C(=O)NN=C[C@@H](O)[C@H](O)[C@H](O)CO (stereo partly drawn) [Compound 9, N^1,N^3-bis (1-oxo-1-(-2-((2R, 3S, 4R)-2,3,4,5-tetrahydroxypentylidene) hydrazinyl)propan-2-yl) isophthalamide]
cytotoxic activity (in words, SAR) [1]: dramatic drop in the anticancer effect

Compound: CC(NC(=O)c1cccc(C(=O)NC(C)c2n[nH]c(=S)o2)c1)c1n[nH]c(=S)o1 (centres unmarked) [Compound 7, N^1,N^3-bis (1-(5-thioxo-4,5-dihydro-1,3,4-oxadiazol-2-yl)ethyl) isophthalamide]
inhibition at 100 µM (MCF-7 cell line): 77.5%
inhibition at 100 µM [1]: 72.5 to 98.3%
melting point: 132 to 134 °C

Compound: CC(NC(=O)c1cccc(C(=O)NC(C)C(=O)NN2C(=O)CSC2c2ccc(F)cc2)c1)C(=O)NN1C(=O)CSC1c1ccc(F)cc1 (centres unmarked) [Compound 15, N^1,N^3-bis-(1-(2-(4-fluorophenyl)-4-oxothiazolidin-3-ylamino)-1-oxopropan-2-yl) isophthalamide]
melting point: 168 to 170 °C
